# Biological target: HIF PHD2 (Homo sapiens, UniProt Q9GZT9)
# Experiment: PHD2 inhibition assay (TR-FRET, VCB-Eu detection of hydroxylated P564-HIF1α peptide)
# Format: biochemical
# Settings: 2 nM PHD2, 100 nM P564-HIF1α peptide, 0.25 μM 2-oxoglutarate, 100 μM FeCl2, 2 mM ascorbic acid
# Procedure, shortened: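 Human PHD2 (2 nM final) preincubated 1 h at room temperature with compound and 100 μM FeCl2 in pH 6 MES buffer, 5% DMSO final. Reaction with 100 nM biotinylated P564-HIF1α peptide, 2 mM ascorbate and 0.25 μM 2-oxoglutarate for 1 h, stopped with succinate. Hydroxylation read by TR-FRET (VCB-Eu/streptavidin-APC, 655/615 nm); IC50 from 4-parameter fit of percent of control.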
# Sequence of HIF PHD2 (Q9GZT9 whole entry): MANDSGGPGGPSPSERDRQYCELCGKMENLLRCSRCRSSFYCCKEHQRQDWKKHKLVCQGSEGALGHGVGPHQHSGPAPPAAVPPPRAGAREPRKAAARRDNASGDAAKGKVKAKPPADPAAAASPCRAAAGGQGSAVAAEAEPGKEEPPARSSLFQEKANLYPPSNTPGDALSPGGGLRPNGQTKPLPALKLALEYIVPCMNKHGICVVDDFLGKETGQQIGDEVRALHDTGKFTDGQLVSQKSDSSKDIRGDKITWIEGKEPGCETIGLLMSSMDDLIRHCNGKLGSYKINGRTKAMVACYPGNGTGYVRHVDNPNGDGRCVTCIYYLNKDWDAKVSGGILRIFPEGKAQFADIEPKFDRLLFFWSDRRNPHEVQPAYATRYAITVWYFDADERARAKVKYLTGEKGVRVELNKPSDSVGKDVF
row,Structure (SMILES),IC50
1,"CC1(C)C(=O)C(C(=O)NCC(=O)O)=C(O)c2c(F)cccc21 [Example 81, N-((5-Fluoro-4-hydroxy-1,1-dimethyl-2-oxo-naphthalen-3-yl)carbonyl)glycine]",< 100 nM
2,"CC1(C)C(=O)C(C(=O)NCC(=O)O)=C(O)c2c(Cl)cccc21 [Example 82, N-((5-Chloro-4-hydroxy-1,1-dimethyl-2-oxo-naphthalen-3-yl)carbonyl)glycine]",< 100 nM
3,"O=C(O)CNC(=O)C1=C(O)c2cccc(F)c2C2(CCOCC2)C1=O [Example 83, N-((8-Fluoro-4-hydroxy-2-oxo-2′,3′,5′,6′-tetrahydro-spiro[naphthalene-1,4′-pyran]-3-yl)carbonyl)glycine]",< 100 nM
4,"CC1(C#N)C(=O)C(C(=O)NCC(=O)O)=C(O)c2cc(Cl)ccc21 (stereo not drawn) [Example 84, N-((6-Chloro-1-cyano-4-hydroxy-1-methyl-2-oxo-naphthalen-3-yl)carbonyl)glycine]",< 100 nM
5,"C[C@@]1(C#N)C(=O)C(C(=O)NCC(=O)O)=C(O)c2cc(Cl)ccc21 [Example 85, N-(((1R)-6-Chloro-1-cyano-4-hydroxy-1-methyl-2-oxo-naphthalen-3-yl)carbonyl)glycine]",< 100 nM
6,"C[C@]1(C#N)C(=O)C(C(=O)NCC(=O)O)=C(O)c2cc(Cl)ccc21 [Example 86, N-(((1S)-6-Chloro-1-cyano-4-hydroxy-1-methyl-2-oxo-naphthalen-3-yl)carbonyl)glycine]",< 100 nM
7,"C[C@@]1(C#N)C(=O)C(C(=O)NCC(=O)O)=C(O)c2ccccc21 [Example 87, N-(((1R)-1-Cyano-4-hydroxy-1-methyl-2-oxo-naphthalen-3-yl)carbonyl)glycine]",< 100 nM
8,"C[C@]1(C#N)C(=O)C(C(=O)NCC(=O)O)=C(O)c2ccccc21 [Example 88, N-(((1S)-1-Cyano-4-hydroxy-1-methyl-2-oxo-naphthalen-3-yl)carbonyl)glycine]",< 100 nM
9,"CC1(C)C(=O)C(C(=O)NCC(=O)O)=C(O)c2cccc(Cl)c21 [Example 89, N-((8-Chloro-4-hydroxy-1,1-dimethyl-2-oxo-naphthalen-3-yl)carbonyl)glycine]",< 100 nM
10,"CC1(C)C(=O)C(C(=O)NCC(=O)O)=C(O)c2ccc(Cl)c(F)c21 [Example 90, N-((7-Chloro-8-fluoro-4-hydroxy-1,1-dimethyl-2-oxo-naphthalen-3-yl)carbonyl)glycine]",< 100 nM
11,"CC1(C)C(=O)C(C(=O)NCC(=O)O)=C(O)c2cc(Cl)c(F)cc21 [Example 92, N-((6-Chloro-7-fluoro-4-hydroxy-1,1-dimethyl-2-oxo-naphthalen-3-yl)carbonyl)glycine]",< 100 nM
12,"O=C(N[C@@H](CO)C(=O)O)C1=C(O)c2cc(Cl)ccc2C2(CCOCC2)C1=O [Example 95, N-((6-Chloro-4-hydroxy-2-oxo-2′,3′,5′,6′-tetrahydro-spiro[naphthalene-1,4′-pyran]-3-yl)carbonyl)-L-serine]",100 to 500 nM
13,"CC1(C)C(=O)C(C(=O)NCC(=O)O)=C(O)c2cc(F)c(Cl)cc21 [Example 96, N-((7-Chloro-6-fluoro-4-hydroxy-1,1-dimethyl-2-oxo-naphthalen-3-yl)carbonyl)glycine]",< 100 nM
14,"O=C(O)CNC(=O)C1=C(O)c2cc(F)c(Cl)cc2C2(CCOCC2)C1=O [Example 97, N-((7-Chloro-6-fluoro-4-hydroxy-2-oxo-2′,3′,5′,6′-tetrahydro-spiro[naphthalene-1,4′-pyran]-3-yl)carbonyl)glycine]",< 100 nM
15,"COC/C=C/c1ccc2c(c1)C(C)(C)C(=O)C(C(=O)NCC(=O)O)=C2O [Example 98, N-((4-Hydroxy-1,1-dimethyl-7-((1E)-3-(methyloxy)-1-propen-1-yl)-2-oxo-naphthalen-3-yl)carbonyl)glycine]",< 100 nM
16,"COCCCc1ccc2c(c1)C(C)(C)C(=O)C(C(=O)NCC(=O)O)=C2O [Example 99, N-((4-Hydroxy-1,1-dimethyl-7-(3-(methyloxy)propyl)-2-oxo-naphthalen-3-yl)carbonyl)glycine]",< 100 nM
17,"CNC(=O)C1=C(O)c2cc(Cl)ccc2C(C)(C)C1=O [Example 100, 6-Chloro-4-hydroxy-N,1,1-trimethyl-2-oxo-naphthalene-3-carboxamide]",> 10000 nM
18,"CC1(C)C(=O)C(C(N)=O)=C(O)c2cc(Cl)ccc21 [Example 101, 6-Chloro-4-hydroxy-1,1-dimethyl-2-oxo-naphthalene-3-carboxamide]",> 10000 nM
19,"C[C@@H](NC(=O)C1=C(O)c2cc(Cl)ccc2C(C)(C)C1=O)C(=O)O [Example 102, N-((6-chloro-4-hydroxy-1,1-dimethyl-2-oxo-naphthalen-3-yl)carbonyl)-D-alanine]",> 10000 nM
20,"CC1(C)C(=O)C(C(=O)NCC(=O)O)=C(O)c2cccnc21 [Example 103, 2-(5-Hydroxy-8,8-dimethyl-7-oxo-7,8-dihydroquinoline-6-carboxamido)acetic acid]",< 100 nM
21,"CC1(C)C(=O)C(C(=O)CCC(=O)O)=C(O)c2cc(Br)ccc21 [Example 104, 4-(7-Bromo-1-hydroxy-4,4-dimethyl-3-oxo-3,4-dihydronaphthalen-2-yl)-4-oxobutanoic acid]",< 100 nM
22,"CC1(C)C(=O)C(C(=O)NCC(=O)O)=C(O)c2ccncc21 [Example 105, 2-(5-Hydroxy-8,8-dimethyl-7-oxo-7,8-dihydroisoquinoline-6-carboxamido)acetic acid]",< 100 nM
23,"CC1(C)C(=O)C(C(=O)NCC(=O)O)=C(O)c2ccc(C(=O)O)cc21 [Example 106, 6-((Carboxymethyl)carbamoyl)-7-hydroxy-8,8-dimethyl-5-oxo-5,8-dihydronaphthalene-2-carboxylic acid]",< 100 nM
24,"CC1(C)C(=O)C(C(=O)NCC(=O)O)=C(O)c2ccc(NCCN3CCOCC3)cc21 [Example 107, 2-(2-Hydroxy-1,1-dimethyl-7-(2-morpholinoethylamino)-4-oxo-1,4-dihydronaphthalene-3-carboxamido)acetic acid]",100 to 500 nM

# Other lines, results leading:
row,IC50,Structure (SMILES)
1,500 to 1000 nM,"CC1(C)C(=O)C(C(=O)NCC(=O)O)=C(O)c2cc(-c3ccccc3)ccc21 [Example 68, N-((6-Phenyl-4-hydroxy-1,1-dimethyl-2-oxo-naphthalen-3-yl)carbonyl)glycine]"
2,< 100 nM,"O=C(O)CNC(=O)C1=C(O)c2ccccc2C2(CCN(Cc3ccccc3)CC2)C1=O [Example 69, N-((4-Hydroxy-2-oxo-2′,3′,5′,6′-tetrahydro-N-benzyl-spiro[naphthalene-1,4′-piperidine]-3-yl)carbonyl)glycine]"
3,100 to 500 nM,"O=C(O)CNC(=O)C1=C(O)c2ccccc2C2(CCNCC2)C1=O [Example 70, N-((4-Hydroxy-2-oxo-2′,3′,5′,6′-tetrahydro-spiro[naphthalene-1,4′-piperidine]-3-yl)carbonyl)glycine]"
4,< 100 nM,"O=C(O)CNC(=O)C1=C(O)c2cc(Cl)ccc2C2(CCN(Cc3ccccc3)CC2)C1=O [Example 71, N-((6-Chloro-4-hydroxy-2-oxo-2′,3′,5′,6′-tetrahydro-N-benzyl-spiro[naphthalene-1,4′-piperidine]-3-yl)carbonyl)glycine]"
5,< 100 nM,"O=C(O)CNC(=O)C1=C(O)c2cc(Cl)ccc2C2(CCCO2)C1=O (stereo not drawn) [Example 72, N-((6′-Chloro-4′-hydroxy-2′-oxo-4,5-dihydro-spiro[furan-2,1′-naphthalen]-3′-yl)carbonyl)glycine]"
6,< 100 nM,"O=C(O)CNC(=O)C1=C(O)c2cc(Cl)ccc2[C@@]2(CCCO2)C1=O [Example 73, N-(((2S)-6′-Chloro-4′-hydroxy-2′-oxo-4,5-dihydro-spiro[furan-2,1′-naphthalen]-3′-yl)carbonyl)glycine]"
7,100 to 500 nM,"O=C(O)CNC(=O)C1=C(O)c2cc(Cl)ccc2[C@]2(CCCO2)C1=O [Example 74, N-(((2R)-6′-Chloro-4′-hydroxy-2′-oxo-4,5-dihydro-spiro[furan-2,1′-naphthalen]-3′-yl)carbonyl)glycine]"
8,< 100 nM,"O=C(O)CNC(=O)C1=C(O)c2cc(Cl)ccc2C2(CCCOC2)C1=O (stereo not drawn) [Example 75, N-((6-Chloro-4-hydroxy-2-oxo-5′,6′-dihydro-spiro[naphthalene-1,3′-pyran]-3-yl)carbonyl)glycine]"
9,100 to 500 nM,"O=C(O)CNC(=O)C1=C(O)c2cc(Cl)ccc2[C@]2(CCCOC2)C1=O [Example 76, N-(((1S)-6-Chloro-4-hydroxy-2-oxo-5′,6′-dihydro-spiro[naphthalene-1,3′-pyran]-3-yl)carbonyl)glycine]"
10,< 100 nM,"O=C(O)CNC(=O)C1=C(O)c2cc(Cl)ccc2[C@@]2(CCCOC2)C1=O [Example 77, N-(((1R)-6-Chloro-4-hydroxy-2-oxo-5′,6′-dihydro-spiro[naphthalene-1,3′-pyran]-3-yl)carbonyl)glycine]"
11,100 to 500 nM,"CC[C@]1(C)C(=O)C(C(=O)NCC(=O)O)=C(O)c2cc(Cl)ccc21 [Example 79, N-(((1S)-6-Chloro-4-hydroxy-1-ethyl-1-methyl-2-oxo-naphthalen-3-yl)carbonyl)glycine]"
12,< 100 nM,"O=C(O)CNC(=O)C1=C(O)c2cc(Cl)ccc2C2(CCC(=O)CC2)C1=O [Example 80, N-((6′-Chloro-4′-hydroxy-2′,4-dioxo-spiro[cyclohexane-1,1′-naphthalen]-3′-yl)carbonyl)glycine]"
13,< 100 nM,"O=C(O)CNC(=O)C1=C(O)c2cc(Cl)ccc2C2(CCN(C(=O)c3ccccc3)CC2)C1=O [Example 91, N-((6-Chloro-4-hydroxy-2-oxo-1′-(phenylcarbonyl)-spiro[naphthalene-1,4′-piperidin]-3-yl)carbonyl)glycine]"
14,< 100 nM,"O=C(O)CNC(=O)C1=C(O)c2cc(Cl)ccc2C2(CCC2)C1=O [Example 93, N-((6′-Chloro-4′-hydroxy-2′-oxo-spiro[cyclobutane-1,1′-naphthalen]-3′-yl)carbonyl)glycine]"
15,< 100 nM,"O=C(O)CNC(=O)C1=C(O)c2ccccc2C2(CCOCC2)C1=O [Example 94, N-((4-hydroxy-2-oxo-2′,3′,5′,6′-tetrahydro-spiro[naphthalene-1,4′-pyran]-3-yl)carbonyl)glycine]"

# From patent US7928139B2 (Amgen Inc., priority 2006, dated 2011)
